This is an account of results in patent US10683269B2 (MISSION THERAPEUTICS LIMITED, priority 2016, dated 2020).

Structures are written as SMILES.

The IC50 is the midpoint of a concentration-inhibition curve.

T1 sequence (Q93009 whole entry): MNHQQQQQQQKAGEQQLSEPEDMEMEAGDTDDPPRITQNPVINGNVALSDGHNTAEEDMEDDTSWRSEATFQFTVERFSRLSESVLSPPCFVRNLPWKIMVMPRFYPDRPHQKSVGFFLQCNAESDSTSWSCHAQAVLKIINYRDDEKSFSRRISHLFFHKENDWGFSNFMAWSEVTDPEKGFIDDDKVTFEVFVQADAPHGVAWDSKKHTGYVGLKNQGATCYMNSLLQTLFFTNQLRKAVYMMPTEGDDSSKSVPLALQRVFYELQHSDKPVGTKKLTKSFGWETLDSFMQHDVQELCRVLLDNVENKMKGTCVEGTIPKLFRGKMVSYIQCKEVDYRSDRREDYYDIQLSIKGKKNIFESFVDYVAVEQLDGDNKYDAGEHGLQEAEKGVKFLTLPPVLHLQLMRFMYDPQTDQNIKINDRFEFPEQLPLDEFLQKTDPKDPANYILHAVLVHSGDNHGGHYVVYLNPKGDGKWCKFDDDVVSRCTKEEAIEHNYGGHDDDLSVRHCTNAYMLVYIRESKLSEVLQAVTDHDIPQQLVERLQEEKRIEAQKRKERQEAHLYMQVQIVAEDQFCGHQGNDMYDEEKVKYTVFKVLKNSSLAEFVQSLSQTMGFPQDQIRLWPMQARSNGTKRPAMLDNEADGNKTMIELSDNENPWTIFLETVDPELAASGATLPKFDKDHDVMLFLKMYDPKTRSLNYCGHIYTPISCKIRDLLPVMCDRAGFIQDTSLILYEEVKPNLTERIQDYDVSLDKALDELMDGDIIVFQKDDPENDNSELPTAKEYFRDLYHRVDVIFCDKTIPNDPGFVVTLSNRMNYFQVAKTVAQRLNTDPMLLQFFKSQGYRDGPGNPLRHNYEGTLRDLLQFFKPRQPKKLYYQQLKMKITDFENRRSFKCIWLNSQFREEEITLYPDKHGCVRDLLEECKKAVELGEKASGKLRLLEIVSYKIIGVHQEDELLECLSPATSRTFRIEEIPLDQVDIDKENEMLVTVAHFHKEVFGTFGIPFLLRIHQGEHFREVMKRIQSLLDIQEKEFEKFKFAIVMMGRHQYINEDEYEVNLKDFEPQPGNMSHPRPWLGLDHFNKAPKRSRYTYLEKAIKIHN

This assay has as its target T1, USP7 (Homo sapiens, UniProt Q93009).
T1 construct: The USP7 construct was PCR amplified and cloned into a pFLAG-CMV-6a vector (Sigma-Aldrich) with an N-terminal FLAG tag; made in house; host or cells: HEK293T
Nature of the assay: USP7 biochemical IC50 assay (fluorescence polarisation, TAMRA labelled peptide linked to ubiquitin via an iso-peptide bond). The conditions noted are these: 30 min pre-incubation of enzyme and compound, read after 2 hr incubation at room temperature, read-out: IC50 range. In outline:
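Fluorescence polarisation at 540 nm excitation/590 nm emission, read immediately and after 2 hr at room temperature, following addition of 50 nM TAMRA-labelled iso-peptide ubiquitin substrate.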
On the technique in general: In fluorescence polarisation assays a small probe gives low polarisation when free and higher when bound to something large.
On to `CN1CC(c2cc3c(c(-c4ccccc4)c2)CN(C#N)C3)CCC1=O` (stereo not drawn) [Example 262, 6-(1-methyl-6-oxopiperidin-3-yl)-4-phenylisoindoline-2-carbonitrile], for which the IC50 lay in the range of 1000 to 10000 nM.
Consider `Cn1cc(-c2cc3c(c(-c4ccccc4)c2)CN(C#N)C3)ccc1=O` [Example 263, 6-(1-methyl-6-oxo-1,6-dihydropyridin-3-yl)-4-phenylisoindoline-2-carbonitrile], for which the IC50 lay within 1000 to 10000 nM.
The same measure for `N#Cc1ccc(-c2cc(NC(=O)C3CCOCC3)cc3c2CN(C#N)C3)cc1` [Example 264, N-(2-cyano-7-(4-cyanophenyl)isoindolin-5-yl)tetrahydro-2H-pyran-4-carboxamide]: 1000 to 10000 nM; for `CN1CC(C(=O)Nc2cc3c(c(-c4ccc(C#N)cc4)c2)CN(C#N)C3)CC1=O` (stereo not drawn) [Example 265, N-(2-cyano-7-(4-cyanophenyl)isoindolin-5-yl)-1-methyl-5-oxopyrrolidine-3-carboxamide]: 1000 to 10000 nM.
The value for `CN1CC(C(=O)Nc2cc3c(c(-c4ccc(C#N)cc4)c2)CN(C#N)C3)CCC1=O` (stereo not drawn) [Example 266, N-(2-cyano-7-(4-cyanophenyl)isoindolin-5-yl)-1-methyl-6-oxopiperidine-3-carboxamide] was 1000 to 10000 nM; that for `CN(C)CC(=O)Nc1cc2c(c(-c3ccc(C#N)cc3)c1)CN(C#N)C2` [Example 267, N-(2-cyano-7-(4-cyanophenyl)isoindolin-5-yl)-2-(dimethylamino)acetamide] was < 1000 nM; that for `N#CN1Cc2cccc(N3C(=O)CCCC3=O)c2C1` [Example 268, 4-(2,6-dioxopiperidin-1-yl)isoindoline-2-carbonitrile] was 10000 to 30000 nM.
On to `CNc1cc2c(c(-c3ccc(C#N)cc3)c1)CN(C#N)C2` [Example 269, 4-(4-cyanophenyl)-6-(methylamino)isoindoline-2-carbonitrile], for which the IC50 was 1000 to 10000 nM.
The same measure for `CN(C)c1cc2c(c(-c3ccc(C#N)cc3)c1)CN(C#N)C2` [Example 270, 4-(4-cyanophenyl)-6-(dimethylamino)isoindoline-2-carbonitrile]: < 1000 nM.
The same measure for `N#Cc1ccc(-c2cc(NCCO)cc3c2CN(C#N)C3)cc1` [Example 271, 4-(4-cyanophenyl)-6-((2-hydroxyethyl)amino)isoindoline-2-carbonitrile]: 1000 to 10000 nM; for `CC(C)Nc1cc2c(c(-c3ccc(C#N)cc3)c1)CN(C#N)C2` [Example 272, 4-(4-cyanophenyl)-6-(isopropylamino)isoindoline-2-carbonitrile]: 1000 to 10000 nM; for `N#Cc1ccc(-c2cc(NC3CCS(=O)(=O)CC3)cc3c2CN(C#N)C3)cc1` [Example 273, 4-(4-cyanophenyl)-6-((1,1-dioxidotetrahydro-2H-thiopyran-4-yl)amino)isoindoline-2-carbonitrile]: 1000 to 10000 nM.
The value for `N#Cc1ccc(-c2cc(NC3CCOCC3)cc3c2CN(C#N)C3)cc1` [Example 274, 4-(4-cyanophenyl)-6-((tetrahydro-2H-pyran-4-yl)amino)isoindoline-2-carbonitrile] was 1000 to 10000 nM.
`N#Cc1ccc(-c2cc(NCC3CCOCC3)cc3c2CN(C#N)C3)cc1` [Example 275, 4-(4-cyanophenyl)-6-(((tetrahydro-2H-pyran-4-yl)methyl)amino)isoindoline-2-carbonitrile]: the IC50 was < 1000 nM.
For `Cn1nccc1CNc1cc2c(c(-c3ccc(C#N)cc3)c1)CN(C#N)C2` [Example 276, 4-(4-cyanophenyl)-6-(((1-methyl-1H-pyrazol-5-yl)methyl)amino)isoindoline-2-carbonitrile], the IC50 fell in the range of 1000 to 10000 nM.
On to `CCNc1cc2c(c(-c3ccc(C#N)cc3)c1)CN(C#N)C2` [Example 277, 4-(4-cyanophenyl)-6-(ethylamino)isoindoline-2-carbonitrile], for which the IC50 was in the range of 1000 to 10000 nM.
The same measure for `N#Cc1ccc(-c2cc(N3CCS(=O)(=O)CC3)cc3c2CN(C#N)C3)cc1` [Example 278, 4-(4-cyanophenyl)-6-(1,1-dioxidothiomorpholino)isoindoline-2-carbonitrile]: 1000 to 10000 nM; for `CCN(CC)c1cc2c(c(-c3ccc(C#N)cc3)c1)CN(C#N)C2` [Example 279, 4-(4-Cyanophenyl)-6-(diethylamino)isoindoline-2-carbonitrile]: 1000 to 10000 nM; for `N#Cc1ccc(-c2cc(NCC(O)CO)cc3c2CN(C#N)C3)cc1` (stereo not drawn) [Example 280, 4-(4-Cyanophenyl)-6-((2,3-dihydroxypropyl)amino)isoindoline-2-carbonitrile]: 1000 to 10000 nM.
The value for `N#Cc1ccc(-c2cc(NCC3CCOCC3)cc3c2CN(C#N)C3)c(C(N)=O)c1` [Example 281, 5-Cyano-2-(2-cyano-6-(((tetrahydro-2H-pyran-4-yl)methyl)amino)isoindolin-4-yl)benzamide] was 1000 to 10000 nM; that for `N#CN1Cc2cc(NC[C@H](O)CO)cc(-c3ccc(F)cc3)c2C1` [Example 282, (S)-6((2,3-dihydroxypropyl)amino)-4-(4-fluorophenyl)isoindoline-2-carbonitrile] was 1000 to 10000 nM.
In the case of `N#Cc1ccccc1-c1cc(NC[C@H](O)CO)cc2c1CN(C#N)C2` [Example 283, (S)-4-(2-cyanophenyl)-6-((2,3-dihydroxypropyl)amino)isoindoline-2-carbonitrile], the IC50 was < 1000 nM.
The value for `COC(CO)CNc1cc2c(c(-c3ccc(C#N)cc3)c1)CN(C#N)C2` (stereo not drawn) [Example 284, 4-(4-Cyanophenyl)-6-((3-hydroxy-2-methoxypropyl)amino)isoindoline-2-carbonitrile] was 1000 to 10000 nM.
On to `CN(C)c1cc2c(c(-c3ccc(C#N)cc3C(N)=O)c1)CN(C#N)C2` [Example 285, 5-Cyano-2-(2-cyano-6-(dimethylamino)isoindolin-4-yl)benzamide], for which the IC50 was 1000 to 10000 nM.
The same measure for `CC(O)CNc1cc2c(c(-c3ccc(C#N)cc3)c1)CN(C#N)C2` (stereo not drawn) [Example 286, 4-(4-Cyanophenyl)-6-((2-hydroxypropyl)amino)isoindoline-2-carbonitrile]: 1000 to 10000 nM; for `CC(C)(O)CNc1cc2c(c(-c3ccc(C#N)cc3)c1)CN(C#N)C2` [Example 287, 4-(4-cyanophenyl)-6-((2-hydroxy-2-methylpropyl)amino)iso-indoline-2-carbonitrile]: 1000 to 10000 nM; for `COC(C)(O)CNc1cc2c(c(-c3ccc(C#N)cc3)c1)CN(C#N)C2` (stereo not drawn) [Example 288, 4-(4-cyanophenyl)-6-((2-hydroxy-2-methoxypropyl)amino)iso-indoline-2-carbonitrile]: 1000 to 10000 nM.
The same measure for `Cc1nc2c(c(-c3cccc(N4CCCC4=O)c3)n1)CN(C#N)C2` [Example 289, 2-methyl-4-(3-(2-oxopyrrolidin-1-yl)phenyl)-5,7-dihydro-6H-pyrrolo[3,4-d]pyrimidine-6-carbonitrile]: 1000 to 10000 nM.
The same measure for `Cn1nccc1CNc1nc2c(c(-c3cccc(N4CCCC4=O)c3)n1)CN(C#N)C2` [Example 290, 2-(((1-methyl-1H-pyrazol-5-yl)methyl)amino)-4-(3-(2-oxopyrrolidin-1-yl)phenyl)-5,7-dihydro-6H-pyrrolo[3,4-d]pyrimidine-6-carbonitrile]: 1000 to 10000 nM; for `N#CN1Cc2nc(NCCO)nc(-c3cccc(N4CCCC4=O)c3)c2C1` [Example 291, 2-((2-hydroxyethyl)amino)-4-(3-(2-oxopyrrolidin-1-yl)phenyl)-5,7-dihydro-6H-pyrrolo[3,4-d]pyrimidine-6-carbonitrile]: < 1000 nM.
